Activity calls are given as the source filed them. No rule for the calls is given here.
Test system: CCRIS mutagenicity, Ames/micronucleus/aberration tests
Assay: CCRIS mutagenicity studies
Description: The CCRIS database contains chemical records with carcinogenicity, mutagenicity, tumor promotion, and tumor inhibition test results. It was developed by the National Cancer Institute (NCI). Data are derived from studies cited in primary journals, current awareness tools, NCI reports, and other sources. Test results have been reviewed by experts in carcinogenesis and mutagenesis.
CCRIS provides historical information from the years 1985 - 2011. It is no longer updated.
This is an archive assay for CCRIS mutagenicity studies.

[1] = Test System: AMES SALMONELLA TYPHIMURIUM, Strain/Indicator: TA98, Metabolic Activation: NONE, Method: PREINCUBATION
[2] = Test System: AMES SALMONELLA TYPHIMURIUM, Strain/Indicator: TA100, Metabolic Activation: NONE, Method: PREINCUBATION
[3] = Test System: AMES SALMONELLA TYPHIMURIUM, Strain/Indicator: TA104, Metabolic Activation: NONE, Method: PREINCUBATION
[4] = Test System: AMES SALMONELLA TYPHIMURIUM, Strain/Indicator: TA98, Metabolic Activation: NONE, Method: STANDARD PLATE
[5] = Test System: AMES SALMONELLA TYPHIMURIUM, Strain/Indicator: TA100, Metabolic Activation: NONE, Method: STANDARD PLATE

SMILES: CCN(CC)c1ccc(N=Nc2sc(C=O)c(Cl)c2C#N)c(NC(=O)COC)c1
- mutagenic call (End Point: IN VITRO CHROMOSOMAL ABERRATIONS, Test System: CHL CELLS, Metabolic Activation: RAT, LIVER, S-9, SODIUM PHENOBARBITAL AND 5,6-BENZOFLAVONE): inactive; negative; precipitation occurred at all doses

SMILES: O=C1C=Cc2c(ccc3ccccc23)C1=O
- mutagenic call (Test System: AMES SALMONELLA TYPHIMURIUM, Strain/Indicator: TA97A, Metabolic Activation: NONE, Method: PREINCUBATION): inactive; negative
- mutagenic call [1]: inactive; negative
- mutagenic call [2]: inactive; negative
- mutagenic call (Test System: AMES SALMONELLA TYPHIMURIUM, Strain/Indicator: TA102, Metabolic Activation: NONE, Method: PREINCUBATION): inactive; negative
- mutagenic call [3]: active; positive

SMILES: O=C(Cl)c1ccccc1Cl
- mutagenic call [1]: inactive; negative
- mutagenic call (Test System: AMES SALMONELLA TYPHIMURIUM, Strain/Indicator: TA98, Metabolic Activation: RAT LIVER S-9, PCB, Method: PREINCUBATION): active; positive
- mutagenic call [2]: active; positive
- mutagenic call (Test System: AMES SALMONELLA TYPHIMURIUM, Strain/Indicator: TA100, Metabolic Activation: RAT LIVER S-9, PCB, Method: PREINCUBATION): active; positive
- mutagenic call [3]: active; positive
- mutagenic call (Test System: AMES SALMONELLA TYPHIMURIUM, Strain/Indicator: TA104, Metabolic Activation: RAT LIVER S-9 PCB, Method: PREINCUBATION): active; positive
- mutagenic call (Test System: E.COLI, Strain/Indicator: WP2 UVRA, Metabolic Activation: NONE, Method: PREINCUBATION): inactive; negative
- mutagenic call (Test System: E.COLI, Strain/Indicator: WP2 UVRA, Metabolic Activation: RAT LIVER S-9, PCB, Method: PREINCUBATION): active; positive

SMILES: C[C@]12CCC(=O)C=C1CC[C@@H]1[C@@H]2[C@@H](O)C[C@@]2(C)[C@H]1CC[C@]2(O)C(=O)CO
- mutagenic call (End Point: IN VITRO CHROMOSOMAL ABERRATIONS, Test System: HUMAN PERIPHERAL BLOOD LYMPHOCYTES, Metabolic Activation: NONE): active; positive
- mutagenic call (Test System: UDS RAT HEPATOCYTES, Strain/Indicator: THY INCORP (18-20 HR), Metabolic Activation: NONE, Method: LIQUID SCINTILLATION COUNTING): inactive; negative

SMILES: C[C@H](CCC(=O)O)[C@H]1CC[C@H]2[C@@H]3CC[C@@H]4C[C@H](O)CC[C@]4(C)[C@H]3CC(=O)[C@]12C
- mutagenic call (Test System: AMES SALMONELLA TYPHIMURIUM, Strain/Indicator: TA98, Metabolic Activation: NONE, Method: FLUCTUATION TEST): inactive; negative
- mutagenic call [1]: inactive; negative
- mutagenic call (Test System: AMES SALMONELLA TYPHIMURIUM, Strain/Indicator: TA98, Metabolic Activation: RAT, LIVER, S-9, PCB, Method: PREINCUBATION): inactive; negative
- mutagenic call (Test System: AMES SALMONELLA TYPHIMURIUM, Strain/Indicator: TA100, Metabolic Activation: NONE, Method: FLUCTUATION TEST): inactive; negative

SMILES: Cc1cc2cc3ccccc3cc2c2ccccc12
- mutagenic call (Test System: AMES SALMONELLA TYPHIMURIUM, Strain/Indicator: TA100, Metabolic Activation: RAT, INTACT HEPATOCYTES, AROCLOR 1254, Method: PREINCUBATION): active; positive
- mutagenic call (Test System: AMES SALMONELLA TYPHIMURIUM, Strain/Indicator: TA100, Metabolic Activation: RAT, NADPH-FORTIFIED HOMOGENIZED HEPATOCYTES, AROCLOR 1254, Method: PREINCUBATION): active; positive
- mutagenic call (Test System: AMES SALMONELLA TYPHIMURIUM, Strain/Indicator: TA100, Metabolic Activation: RAT, SONICATED HEPATOCYTES, AROCLOR 1254, Method: PREINCUBATION): active; positive

SMILES: CC1=CCC(=O)O1
- mutagenic call [4]: inactive; negative
- mutagenic call (Test System: AMES SALMONELLA TYPHIMURIUM, Strain/Indicator: TA98, Metabolic Activation: RAT, LIVER, S-9, AROCLOR 1254, Method: STANDARD PLATE): inactive; negative
- mutagenic call [5]: inactive; negative
- mutagenic call (Test System: AMES SALMONELLA TYPHIMURIUM, Strain/Indicator: TA100, Metabolic Activation: RAT, LIVER, S-9, AROCLOR 1254, Method: STANDARD PLATE): inactive; negative

SMILES: COC1=CC(=O)c2c(ncc3c4c([nH]c23)CCCC4)C1=O
- mutagenic call (Test System: AMES SALMONELLA TYPHIMURIUM, Strain/Indicator: TA97A, Metabolic Activation: NONE, Method: STANDARD PLATE): active; positive
- mutagenic call (Test System: AMES SALMONELLA TYPHIMURIUM, Strain/Indicator: TA97A, Metabolic Activation: RAT LIVER S-9, AROCLOR 1254, Method: STANDARD PLATE): active; positive
- mutagenic call [4]: active; positive
- mutagenic call (Test System: AMES SALMONELLA TYPHIMURIUM, Strain/Indicator: TA98, Metabolic Activation: RAT LIVER S-9, AROCLOR 1254, Method: STANDARD PLATE): active; positive
- mutagenic call [5]: active; positive
- mutagenic call (Test System: AMES SALMONELLA TYPHIMURIUM, Strain/Indicator: TA100, Metabolic Activation: RAT LIVER S-9, AROCLOR 1254, Method: STANDARD PLATE): active; positive
- mutagenic call (Test System: AMES SALMONELLA TYPHIMURIUM, Strain/Indicator: TA102, Metabolic Activation: NONE, Method: STANDARD PLATE): inactive; negative
- mutagenic call (Test System: AMES SALMONELLA TYPHIMURIUM, Strain/Indicator: TA102, Metabolic Activation: RAT LIVER S-9, AROCLOR 1254, Method: STANDARD PLATE): inactive; negative

SMILES: Oc1cccc2c1sc1ccccc12
- mutagenic call (Test System: CHINESE HAMSTER OVARY, Strain/Indicator: CHO-K1-BH4 (HGPRT)/6-THIOGUANINE, Metabolic Activation: RAT, LIVER, S-9, AROCLOR (4%)): active; positive

SMILES: c1ccc2c(c1)[nH]c1cnccc12
- mutagenic call (Test System: AMES SALMONELLA TYPHIMURIUM, Strain/Indicator: TA98, Metabolic Activation: RAT, LIVER, S-9, AROCLOR 1254, Method: PREINCUBATION): inactive; negative
